The target in one assay is T1, CDK2 (Homo sapiens, UniProt P24941).
T1 construct: endogenous in cells; host or cells: MDA-MB-231
Briefly: CDK protein degradation activity (Western blotting), CDK2. Type of assay: cell-based. The conditions noted are these: MDA-MB-231 cells, 16 hours, Western blot. Summed up: (§1)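 Seed MDA-MB-231 cells; next day add compound to 100 nM, 1 μM or 10 μM final, or DMSO. After 16 h, harvest and lyse in Triton X-100 buffer, run SDS-PAGE, probe for CDK2, CDK9 and tubulin.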
On the technique in general: Immunoblotting shows a protein as a band on a membrane.

The target in another assay is T2, CDK9 (Homo sapiens, UniProt P50750).
T2 construct: endogenous in cells; host or cells: MDA-MB-231
T2 sequence (P50750 whole entry): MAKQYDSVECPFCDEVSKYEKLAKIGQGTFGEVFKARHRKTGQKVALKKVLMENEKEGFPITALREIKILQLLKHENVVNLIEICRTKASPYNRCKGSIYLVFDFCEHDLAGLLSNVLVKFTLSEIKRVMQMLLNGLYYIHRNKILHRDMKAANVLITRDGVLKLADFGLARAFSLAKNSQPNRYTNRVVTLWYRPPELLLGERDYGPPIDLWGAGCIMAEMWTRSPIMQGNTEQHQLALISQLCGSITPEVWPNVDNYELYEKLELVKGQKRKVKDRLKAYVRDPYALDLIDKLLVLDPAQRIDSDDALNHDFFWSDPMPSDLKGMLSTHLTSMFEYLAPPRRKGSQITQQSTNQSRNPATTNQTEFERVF
Briefly: CDK protein degradation activity (Western blotting), CDK9. The following applies: MDA-MB-231 cells, 16 hours, Western blot. In kind it is cell-based. Summed up: as §1

Turning to `O=C1CC[C@H](n2nnc3ccc(N4CCC(CCCN5CCN(c6ccc(Nc7ncnc8c7ncn8C7CC(NC(=O)Cc8ccccc8)C7)cc6)CC5)CC4)cc3c2=O)C(=O)N1` (stereo partly drawn) [Compound 351, N-((1s,3s)-3-(6-((4-(4-(3-(1-(3-(2,6-dioxopiperidin-3-yl)-4-oxo-3,4-dihydrobenzo[d][1,2,3]triazin-6-yl)piperidin-4-yl)propyl)piperazin-1-yl)phenyl)amino)-9H-purin-9-yl)cyclobutyl)-2-phenylacetamide], on CDK2, the “Enzyme degradation CDK2 (% remaining) @ 0.1 μM” value amounted to 20%, the “Enzyme degradation CDK2 (% remaining) @ 1 μM” value is given as 10% and the “Enzyme degradation CDK2 (% remaining) @ 10 μM” value is reported as 10%. For the same molecule, at CDK9, the “Enzyme degradation CDK9 (% remaining) @ 0.1 μM” value was 10/10/10%, the “Enzyme degradation CDK9 (% remaining) @ 1 μM” value was 10/10/10% and the “Enzyme degradation CDK9 (% remaining) @ 10 μM” value is reported as 10/10/10%.
With `Cc1cccc(C(=O)N[C@H]2C[C@@H](n3cnc4c(NC5CCN(CCCN6CCN(c7ccc8c(c7)C(=O)N([C@H]7CCC(=O)NC7=O)C8=O)CC6)CC5)ncnc43)C2)n1` (racemic) [Compound 41, N-((1s,3s)-3-(6-((1-(3-(4-(2-(2,6-dioxopiperidin-3-yl)-1,3-dioxoisoindolin-5-yl)piperazin-1-yl)propyl)piperidin-4-yl)amino)-9H-purin-9-yl)cyclobutyl)-6-methylpicolinamide], on CDK2, the “Enzyme degradation CDK2 (% remaining) @ 0.1 μM” value came to 60%, the “Enzyme degradation CDK2 (% remaining) @ 1 μM” value is on record as 60% and the “Enzyme degradation CDK2 (% remaining) @ 10 μM” value turned out to be 70%. On CDK9, the “Enzyme degradation CDK9 (% remaining) @ 0.1 μM” value is recorded as 0/0/0%, the “Enzyme degradation CDK9 (% remaining) @ 1 μM” value is 0/0/0% and the “Enzyme degradation CDK9 (% remaining) @ 10 μM” value is listed as 0/0/0%.
Consider `O=C1CC[C@@H](c2cccc(OCC(=O)N3CC(N4CCC5(CC4)CC(N4CCN(c6ccc(Nc7ncnc8c7ncn8[C@H]7C[C@@H](NC(=O)Cc8ccccc8)C7)cc6)CC4)C5)C3)c2)C(=O)N1` [Compound 274, N-((1s,3s)-3-(6-((4-(4-(7-(1-(2-(3-(2,6-dioxopiperidin-3-yl)phenoxy)acetyl)azetidin-3-yl)-7-azaspiro[3.5]nonan-2-yl)piperazin-1-yl)phenyl)amino)-9H-purin-9-yl)cyclobutyl)-2-phenylacetamide], for which, on CDK2, the “Enzyme degradation CDK2 (% remaining) @ 0.1 μM” value is recorded as 30%, the “Enzyme degradation CDK2 (% remaining) @ 1 μM” value is 20% and the “Enzyme degradation CDK2 (% remaining) @ 10 μM” value was 20%. Moreover, at CDK9, the “Enzyme degradation CDK9 (% remaining) @ 0.1 μM” value was 30/30/30%, the “Enzyme degradation CDK9 (% remaining) @ 1 μM” value is 30/30/30% and the “Enzyme degradation CDK9 (% remaining) @ 10 μM” value is 30/30/30%.
Turning to `Cc1cccc(C(=O)N[C@H]2C[C@@H](n3cnc4c(NC5CCN(CCC6CCN(C(=O)CNc7ccc8c(c7)C(=O)N([C@H]7CCC(=O)NC7=O)C8=O)CC6)CC5)ncnc43)C2)n1` (racemic) [Compound 33, N-((1s,3s)-3-(6-((1-(2-(1-((2-(2,6-dioxopiperidin-3-yl)-1,3-dioxoisoindolin-5-yl)glycyl)piperidin-4-yl)ethyl)piperidin-4-yl)amino)-9H-purin-9-yl)cyclobutyl)-6-methylpicolinamide], at CDK2, the “Enzyme degradation CDK2 (% remaining) @ 0.1 μM” value was 40%, the “Enzyme degradation CDK2 (% remaining) @ 1 μM” value is 30% and the “Enzyme degradation CDK2 (% remaining) @ 10 μM” value was found to be 50%. For the same molecule, at CDK9, the “Enzyme degradation CDK9 (% remaining) @ 0.1 μM” value is 0/0/0%, the “Enzyme degradation CDK9 (% remaining) @ 1 μM” value is 0/0/0% and the “Enzyme degradation CDK9 (% remaining) @ 10 μM” value is on record as 0/0/0%.
In the case of `Cc1cccc(C(=O)N[C@H]2C[C@@H](n3cnc4c(NC5CCN(C(=O)CC6CCN(C(=O)COc7cccc8c7C(=O)N([C@H]7CCC(=O)NC7=O)C8=O)CC6)CC5)ncnc43)C2)n1` [Compound 50, N-((1s,3s)-3-(6-((1-(2-(1-(2-((2-(2,6-dioxopiperidin-3-yl)-1,3-dioxoisoindolin-4-yl)oxy)acetyl)piperidin-4-yl)acetyl)piperidin-4-yl)amino)-9H-purin-9-yl)cyclobutyl)-6-methylpicolinamide], at CDK2, the “Enzyme degradation CDK2 (% remaining) @ 0.1 μM” value stood at 80%, the “Enzyme degradation CDK2 (% remaining) @ 1 μM” value is on record as 40% and the “Enzyme degradation CDK2 (% remaining) @ 10 μM” value stood at 10%. At CDK9, the “Enzyme degradation CDK9 (% remaining) @ 0.1 μM” value is on record as 90%, the “Enzyme degradation CDK9 (% remaining) @ 1 μM” value turned out to be 60% and the “Enzyme degradation CDK9 (% remaining) @ 10 μM” value came out at 20%.
For `O=C1CC[C@H](N2C(=O)c3ccc(OCC(=O)N4CCC5(CC4)CC(N4CCC(c6ccc(Nc7ncnc8c7ncn8[C@H]7C[C@@H](NC(=O)Cc8ccccc8)C7)cc6)CC4)C5)cc3C2=O)C(=O)N1` [Compound 295, N-((1s,3s)-3-(6-((4-(1-(7-(2-((2-(2,6-dioxopiperidin-3-yl)-1,3-dioxoisoindolin-5-yl)oxy)acetyl)-7-azaspiro[3.5]nonan-2-yl)piperidin-4-yl)phenyl)amino)-9H-purin-9-yl)cyclobutyl)-2-phenylacetamide], at CDK2, the “Enzyme degradation CDK2 (% remaining) @ 0.1 μM” value was 20/20/20%, the “Enzyme degradation CDK2 (% remaining) @ 1 μM” value is on record as 20/20/20% and the “Enzyme degradation CDK2 (% remaining) @ 10 μM” value is 20/20/20%. Further, on CDK9, the “Enzyme degradation CDK9 (% remaining) @ 0.1 μM” value is listed as 0/0/0%, the “Enzyme degradation CDK9 (% remaining) @ 1 μM” value is recorded as 0/0/0% and the “Enzyme degradation CDK9 (% remaining) @ 10 μM” value is on record as 0/0/0%.
For the molecule `O=C1CC[C@H](N2C(=O)c3ccc(NCC(=O)N4CCC5(CC4)CC(N4CCN(c6ccc(Nc7ncnc8c7ncn8[C@H]7C[C@@H](NC(=O)Cc8ccccc8)C7)cc6)CC4)C5)cc3C2=O)C(=O)N1` [Compound 207, N-((1s,3s)-3-(6-((4-(4-(7-((2-(2,6-dioxopiperidin-3-yl)-1,3-dioxoisoindolin-5-yl)glycyl)-7-azaspiro[3.5]nonan-2-yl)piperazin-1-yl)phenyl)amino)-9H-purin-9-yl)cyclobutyl)-2-phenylacetamide], on CDK2, the “Enzyme degradation CDK2 (% remaining) @ 0.1 μM” value came to 50%, the “Enzyme degradation CDK2 (% remaining) @ 1 μM” value was 70% and the “Enzyme degradation CDK2 (% remaining) @ 10 μM” value was determined as 50%. Further, on CDK9, the “Enzyme degradation CDK9 (% remaining) @ 0.1 μM” value is listed as 0/0/0%, the “Enzyme degradation CDK9 (% remaining) @ 1 μM” value is listed as 0/0/0% and the “Enzyme degradation CDK9 (% remaining) @ 10 μM” value is on record as 0/0/0%.
For the molecule `O=C1CC[C@H](N2C(=O)c3cccc(NCC(=O)N4CCC(CN5CCN(c6ccc(Nc7ncnc8c7ncn8[C@H]7C[C@@H](NC(=O)c8c(Cl)cccc8Cl)C7)cc6)CC5)CC4)c3C2=O)C(=O)N1` [Compound 165, 2,6-dichloro-N-((1s,3s)-3-(6-((4-(4-((1-((2-(2,6-dioxopiperidin-3-yl)-1,3-dioxoisoindolin-4-yl)glycyl)piperidin-4-yl)methyl)piperazin-1-yl)phenyl)amino)-9H-purin-9-yl)cyclobutyl)benzamide], on CDK2, the “Enzyme degradation CDK2 (% remaining) @ 0.1 μM” value is recorded as 10/10/10%, the “Enzyme degradation CDK2 (% remaining) @ 1 μM” value is recorded as 10/10/10% and the “Enzyme degradation CDK2 (% remaining) @ 10 μM” value is listed as 10/10/10%. In addition, at CDK9, the “Enzyme degradation CDK9 (% remaining) @ 0.1 μM” value is reported as 0/0/0%, the “Enzyme degradation CDK9 (% remaining) @ 1 μM” value is recorded as 0/0/0% and the “Enzyme degradation CDK9 (% remaining) @ 10 μM” value is reported as 0/0/0%.
For `O=C1CC[C@H](n2nnc3ccc(N4CCN(CCCC5CCN(c6ccc(Nc7ncnc8c7ncn8C7CC(NC(=O)Cc8ccccc8)C7)cc6)CC5)CC4)cc3c2=O)C(=O)N1` (stereo partly drawn) [Compound 349, N-((1s,3s)-3-(6-((4-(4-(3-(4-(3-(2,6-dioxopiperidin-3-yl)-4-oxo-3,4-dihydrobenzo[d][1,2,3]triazin-6-yl)piperazin-1-yl)propyl)piperidin-1-yl)phenyl)amino)-9H-purin-9-yl)cyclobutyl)-2-phenylacetamide], on CDK2, the “Enzyme degradation CDK2 (% remaining) @ 0.1 μM” value is recorded as 0/0/0%, the “Enzyme degradation CDK2 (% remaining) @ 1 μM” value is 0/0/0% and the “Enzyme degradation CDK2 (% remaining) @ 10 μM” value is on record as 0/0/0%. Further, at CDK9, the “Enzyme degradation CDK9 (% remaining) @ 0.1 μM” value amounted to 30%, the “Enzyme degradation CDK9 (% remaining) @ 1 μM” value is 20% and the “Enzyme degradation CDK9 (% remaining) @ 10 μM” value is on record as 20%.
Take `Cc1cccc(C(=O)N[C@H]2C[C@@H](n3cnc4c(NCc5ccc(OCCCN6CCN(C(=O)CNc7cccc8c7C(=O)N([C@H]7CCC(=O)NC7=O)C8=O)CC6)cc5)ncnc43)C2)n1` [Compound 115, N-((1s,3s)-3-(6-((4-(3-(4-((2-(2,6-dioxopiperidin-3-yl)-1,3-dioxoisoindolin-4-yl)glycyl)piperazin-1-yl)propoxy)benzyl)amino)-9H-purin-9-yl)cyclobutyl)-6-methylpicolinamide]: at CDK2, the “Enzyme degradation CDK2 (% remaining) @ 0.1 μM” value worked out at 30%, the “Enzyme degradation CDK2 (% remaining) @ 1 μM” value stood at 40% and the “Enzyme degradation CDK2 (% remaining) @ 10 μM” value is 50%. Besides, on CDK9, the “Enzyme degradation CDK9 (% remaining) @ 0.1 μM” value was 0/0/0%, the “Enzyme degradation CDK9 (% remaining) @ 1 μM” value is 0/0/0% and the “Enzyme degradation CDK9 (% remaining) @ 10 μM” value is 0/0/0%.
Regarding `O=C1CC[C@H](n2nnc3ccc(N4CCC5(CC4)CC(N4CCN(c6ccc(Nc7ncnc8c7ncn8[C@H]7C[C@@H](NC(=O)Cc8ccccc8)C7)cc6)CC4)C5)cc3c2=O)C(=O)N1` [Compound 314, N-((1s,3s)-3-(6-((4-(4-(7-(3-(2,6-dioxopiperidin-3-yl)-4-oxo-3,4-dihydrobenzo[d][1,2,3]triazin-6-yl)-7-azaspiro[3.5]nonan-2-yl)piperazin-1-yl)phenyl)amino)-9H-purin-9-yl)cyclobutyl)-2-phenylacetamide], at CDK2, the “Enzyme degradation CDK2 (% remaining) @ 0.1 μM” value is reported as 10/10/10%, the “Enzyme degradation CDK2 (% remaining) @ 1 μM” value is 10/10/10% and the “Enzyme degradation CDK2 (% remaining) @ 10 μM” value was 10/10/10%. On CDK9, the “Enzyme degradation CDK9 (% remaining) @ 0.1 μM” value worked out at 10%, the “Enzyme degradation CDK9 (% remaining) @ 1 μM” value stood at 0% and the “Enzyme degradation CDK9 (% remaining) @ 10 μM” value is 0%.

The values above are taken from patent publication US20260125382A1, “COMPOUNDS FOR INHIBITING OR DEGRADING CDK2 AND/OR CDK9 AND MEDICINAL USE THEREOF” (KOREA RESEARCH INSTITUTE OF CHEMICAL TECHNOLOGY, priority 2022, published 2026).
